Data: US6855312B1, “Hair care composition” (The Boots Company PLC, priority 1999, dated 2005)

Tested on: Linoleic acid (model skin and hair lipid)
Assay: UVA/B-induced lipid peroxidation of linoleic acid, lipid hydroperoxides by colorimetric test (In Vitro Tests)
Type: biochemical
Settings: first series; compared to irradiated vehicle alone; broad spectrum UVA/B
Procedure: Linoleic acid (model skin and hair lipid) was incubated in the presence of various antioxidants and antoxidant combinations and was exposed to broad spectrum UVA/B to induce oxidation of the lipid. Following extraction of the lipid into methanol, the amount of lipid hydroperoxides (free radical generated damage) formed were measured with a specific colorimetric biochemical test. The degree of inhibition afforded by the antioxidants was thus measured and compared to irradiated vehicle controls.
The percentage inhibition of free radical mediated lipid peroxidation when compared to the vehicle alone are given below.
In a second series of experiments using antoxidants collected in a later season gave the following results.

With `O=C1O[C@H]([C@@H](O)CO)C([O-])=C1OP(=O)([O-])[O-].[Na+].[Na+].[Na+]` [Sodium ascorbyl phosphate] the “% inhibition of free radical mediated lipid peroxidation (observed)” value was 21%.
